Measurements from the supplement of paper PMC10307832.

Columns and labels:
Assay in all cases: relative viability (nuclei count vs DMSO), 5 days (fraction); higher = more cells survive
[1] = compound: C1=CC(=CC=C1C2=CC(=C(S2)NC(=O)N)C(=O)N)F [TPCA-1] + CC1(C)CCC(c2ccc(Cl)cc2)=C(CN2CCN(c3ccc(C(=O)NS(=O)(=O)c4ccc(N[C@H](CCN5CCOCC5)CSc5ccccc5)c(S(=O)(=O)C(F)(F)F)c4)cc3)CC2)C1 [Navitoclax] (partner 0.5 µM)
In short: (§1)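 Relative viability equals treated-well nuclei counts divided by vehicle-well nuclei counts. Counts came from 4× images of lung cancer cell lines grown in 1536-well plates for 5 days after pin-tool dosing on the day after seeding. Dosing used one drug alone or a fixed anchor-drug dose plus five library-drug doses (not always all listed) in √10 steps, and values are medians of duplicate plates.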

[2] = compound: C[C@]12O[C@H](C[C@]1(O)CO)n1c3ccccc3c3c4c(c5c6ccccc6n2c5c31)CNC4=O [Lestaurtinib] + CC(=O)c1c(C)c2cnc(Nc3ccc(N4CCNCC4)cn3)nc2n(C2CCCC2)c1=O [Palbociclib] (partner 0.5 µM)
In short: as §1

[3] = compound: C[C@]12O[C@H](C[C@]1(O)CO)n1c3ccccc3c3c4c(c5c6ccccc6n2c5c31)CNC4=O [Lestaurtinib] + CCNC(=O)c1noc(-c2cc(C(C)C)c(O)cc2O)c1-c1ccc(CN2CCOCC2)cc1 [Luminespib] (partner 0.01 µM)
In short: as §1

[4] = compound: C[C@]12O[C@H](C[C@]1(O)CO)n1c3ccccc3c3c4c(c5c6ccccc6n2c5c31)CNC4=O [Lestaurtinib] + CS(=O)(=O)CCNCc1ccc(-c2ccc3ncnc(Nc4ccc(OCc5cccc(F)c5)c(Cl)c4)c3c2)o1 [Lapatinib] (partner 2 µM)
In short: as §1

NCI-H2347
relative viability ([1]; first compound 0.04 µM): 0.788 | relative viability ([1]; first compound 0.1265 µM): 0.855 | relative viability ([1]; first compound 0.4 µM): 0.726 | relative viability ([1]; first compound 1.265 µM): 0.568 | relative viability ([1]; first compound 4 µM): 0.762 | relative viability ([2]; first compound 0.005 µM): 0.433 | relative viability ([2]; first compound 0.01581 µM): 0.438 | relative viability ([2]; first compound 0.05 µM): 0.535 | relative viability ([2]; first compound 0.1581 µM): 0.48 | relative viability ([2]; first compound 0.5 µM): 0.501 | relative viability ([3]; first compound 0.005 µM): 0.501 | relative viability ([3]; first compound 0.01581 µM): 0.661 | relative viability ([3]; first compound 0.05 µM): 0.404 | relative viability ([3]; first compound 0.1581 µM): 0.246 | relative viability ([3]; first compound 0.5 µM): 0.297 | relative viability ([4]; first compound 0.005 µM): 0.938 | relative viability ([4]; first compound 0.01581 µM): 0.968 | relative viability ([4]; first compound 0.05 µM): 0.871 | relative viability ([4]; first compound 0.1581 µM): 0.65 | relative viability ([4]; first compound 0.5 µM): 0.613

NCI-H2405
relative viability ([1]; first compound 0.04 µM): 0.971 | relative viability ([1]; first compound 0.1265 µM): 0.691 | relative viability ([1]; first compound 0.4 µM): 0.964 | relative viability ([1]; first compound 4 µM): 0.714 | relative viability ([2]; first compound 0.005 µM): 0.518 | relative viability ([2]; first compound 0.01581 µM): 0.546 | relative viability ([2]; first compound 0.05 µM): 0.492 | relative viability ([2]; first compound 0.1581 µM): 0.515 | relative viability ([2]; first compound 0.5 µM): 0.275 | relative viability ([3]; first compound 0.005 µM): 0.747 | relative viability ([3]; first compound 0.01581 µM): 0.631 | relative viability ([3]; first compound 0.05 µM): 0.585 | relative viability ([3]; first compound 0.1581 µM): 0.548 | relative viability ([3]; first compound 0.5 µM): 0.262 | relative viability ([4]; first compound 0.005 µM): 1.06 | relative viability ([4]; first compound 0.01581 µM): 1.14 | relative viability ([4]; first compound 0.05 µM): 1.02 | relative viability ([4]; first compound 0.1581 µM): 0.927 | relative viability ([4]; first compound 0.5 µM): 0.428

NCI-H3122
relative viability ([1]; first compound 0.04 µM): 0.995 | relative viability ([1]; first compound 0.1265 µM): 1.01 | relative viability ([1]; first compound 0.4 µM): 1.04 | relative viability ([1]; first compound 1.265 µM): 1.02 | relative viability ([1]; first compound 4 µM): 1.01 | relative viability ([2]; first compound 0.005 µM): 0.201 | relative viability ([2]; first compound 0.01581 µM): 0.21 | relative viability ([2]; first compound 0.05 µM): 0.2 | relative viability ([2]; first compound 0.1581 µM): 0.229 | relative viability ([2]; first compound 0.5 µM): 0.22 | relative viability ([3]; first compound 0.005 µM): 0.114 | relative viability ([3]; first compound 0.01581 µM): 0.116 | relative viability ([3]; first compound 0.05 µM): 0.115 | relative viability ([3]; first compound 0.1581 µM): 0.0939 | relative viability ([3]; first compound 0.5 µM): 0.088 | relative viability ([4]; first compound 0.005 µM): 1.07 | relative viability ([4]; first compound 0.01581 µM): 1.05 | relative viability ([4]; first compound 0.05 µM): 1.02 | relative viability ([4]; first compound 0.1581 µM): 0.98 | relative viability ([4]; first compound 0.5 µM): 0.414

PC-3 [JPC-3]
relative viability ([1]; first compound 0.04 µM): 0.839 | relative viability ([1]; first compound 0.1265 µM): 0.807 | relative viability ([1]; first compound 0.4 µM): 0.802 | relative viability ([1]; first compound 1.265 µM): 0.677 | relative viability ([1]; first compound 4 µM): 0.719 | relative viability ([2]; first compound 0.005 µM): 0.531 | relative viability ([2]; first compound 0.01581 µM): 0.611 | relative viability ([2]; first compound 0.05 µM): 0.557 | relative viability ([2]; first compound 0.1581 µM): 0.575 | relative viability ([2]; first compound 0.5 µM): 0.544 | relative viability ([3]; first compound 0.005 µM): 0.647 | relative viability ([3]; first compound 0.01581 µM): 0.645 | relative viability ([3]; first compound 0.05 µM): 0.53 | relative viability ([3]; first compound 0.1581 µM): 0.525 | relative viability ([3]; first compound 0.5 µM): 0.255 | relative viability ([4]; first compound 0.005 µM): 0.425 | relative viability ([4]; first compound 0.01581 µM): 0.498 | relative viability ([4]; first compound 0.05 µM): 0.456 | relative viability ([4]; first compound 0.1581 µM): 0.414 | relative viability ([4]; first compound 0.5 µM): 0.335

PC-14
relative viability ([1]; first compound 0.04 µM): 1.03 | relative viability ([1]; first compound 0.1265 µM): 0.876 | relative viability ([1]; first compound 0.4 µM): 1.01 | relative viability ([1]; first compound 1.265 µM): 1.09 | relative viability ([1]; first compound 4 µM): 0.913 | relative viability ([2]; first compound 0.005 µM): 0.509 | relative viability ([2]; first compound 0.01581 µM): 0.594 | relative viability ([2]; first compound 0.05 µM): 0.356 | relative viability ([2]; first compound 0.1581 µM): 0.415 | relative viability ([2]; first compound 0.5 µM): 0.115 | relative viability ([3]; first compound 0.005 µM): 0.154 | relative viability ([3]; first compound 0.01581 µM): 0.154 | relative viability ([3]; first compound 0.05 µM): 0.172 | relative viability ([3]; first compound 0.1581 µM): 0.108 | relative viability ([3]; first compound 0.5 µM): 0.151 | relative viability ([4]; first compound 0.005 µM): 0.437 | relative viability ([4]; first compound 0.01581 µM): 0.378 | relative viability ([4]; first compound 0.05 µM): 0.325 | relative viability ([4]; first compound 0.1581 µM): 0.286 | relative viability ([4]; first compound 0.5 µM): 0.31

RERF-LC-KJ
relative viability ([1]; first compound 0.04 µM): 0.967 | relative viability ([1]; first compound 0.1265 µM): 0.883 | relative viability ([1]; first compound 0.4 µM): 1.06 | relative viability ([1]; first compound 1.265 µM): 0.866 | relative viability ([1]; first compound 4 µM): 0.766 | relative viability ([2]; first compound 0.005 µM): 1.15 | relative viability ([2]; first compound 0.01581 µM): 1.15 | relative viability ([2]; first compound 0.05 µM): 0.845 | relative viability ([2]; first compound 0.1581 µM): 0.87 | relative viability ([2]; first compound 0.5 µM): 0.565 | relative viability ([3]; first compound 0.005 µM): 1.1 | relative viability ([3]; first compound 0.01581 µM): 1.55 | relative viability ([3]; first compound 0.05 µM): 0.828 | relative viability ([3]; first compound 0.1581 µM): 0.959 | relative viability ([3]; first compound 0.5 µM): 0.417 | relative viability ([4]; first compound 0.005 µM): 0.868 | relative viability ([4]; first compound 0.01581 µM): 0.839 | relative viability ([4]; first compound 0.05 µM): 0.731 | relative viability ([4]; first compound 0.1581 µM): 0.758 | relative viability ([4]; first compound 0.5 µM): 0.704

SK-LU-1
relative viability ([1]; first compound 0.04 µM): 0.962 | relative viability ([1]; first compound 0.1265 µM): 0.785 | relative viability ([1]; first compound 0.4 µM): 0.789 | relative viability ([1]; first compound 1.265 µM): 0.7 | relative viability ([1]; first compound 4 µM): 0.566 | relative viability ([2]; first compound 0.005 µM): 0.333 | relative viability ([2]; first compound 0.01581 µM): 0.335 | relative viability ([2]; first compound 0.05 µM): 0.356 | relative viability ([2]; first compound 0.1581 µM): 0.3 | relative viability ([2]; first compound 0.5 µM): 0.288 | relative viability ([3]; first compound 0.005 µM): 0.206 | relative viability ([3]; first compound 0.01581 µM): 0.22 | relative viability ([3]; first compound 0.05 µM): 0.177 | relative viability ([3]; first compound 0.1581 µM): 0.203 | relative viability ([3]; first compound 0.5 µM): 0.215 | relative viability ([4]; first compound 0.005 µM): 0.732 | relative viability ([4]; first compound 0.01581 µM): 0.805 | relative viability ([4]; first compound 0.05 µM): 0.473 | relative viability ([4]; first compound 0.1581 µM): 0.402 | relative viability ([4]; first compound 0.5 µM): 0.2

SK-MES-1
relative viability ([1]; first compound 0.04 µM): 1.3 | relative viability ([1]; first compound 0.1265 µM): 1.07 | relative viability ([1]; first compound 0.4 µM): 1.22 | relative viability ([1]; first compound 1.265 µM): 1.16 | relative viability ([1]; first compound 4 µM): 0.797 | relative viability ([2]; first compound 0.005 µM): 0.329 | relative viability ([2]; first compound 0.01581 µM): 0.324 | relative viability ([2]; first compound 0.05 µM): 0.266 | relative viability ([2]; first compound 0.1581 µM): 0.337 | relative viability ([2]; first compound 0.5 µM): 0.228 | relative viability ([3]; first compound 0.005 µM): 0.714 | relative viability ([3]; first compound 0.01581 µM): 0.619 | relative viability ([3]; first compound 0.05 µM): 0.391 | relative viability ([3]; first compound 0.1581 µM): 0.229 | relative viability ([3]; first compound 0.5 µM): 0.261 | relative viability ([4]; first compound 0.005 µM): 0.529 | relative viability ([4]; first compound 0.01581 µM): 0.453 | relative viability ([4]; first compound 0.05 µM): 0.374 | relative viability ([4]; first compound 0.1581 µM): 0.324 | relative viability ([4]; first compound 0.5 µM): 0.285

SW 1573
relative viability ([1]; first compound 0.04 µM): 1.14 | relative viability ([1]; first compound 0.1265 µM): 0.866 | relative viability ([1]; first compound 0.4 µM): 0.916 | relative viability ([1]; first compound 1.265 µM): 0.962 | relative viability ([1]; first compound 4 µM): 0.948 | relative viability ([2]; first compound 0.005 µM): 0.373 | relative viability ([2]; first compound 0.01581 µM): 0.385 | relative viability ([2]; first compound 0.05 µM): 0.298 | relative viability ([2]; first compound 0.1581 µM): 0.306 | relative viability ([2]; first compound 0.5 µM): 0.113 | relative viability ([3]; first compound 0.005 µM): 0.218 | relative viability ([3]; first compound 0.01581 µM): 0.236 | relative viability ([3]; first compound 0.05 µM): 0.182 | relative viability ([3]; first compound 0.1581 µM): 0.315 | relative viability ([3]; first compound 0.5 µM): 0.131 | relative viability ([4]; first compound 0.005 µM): 1.33 | relative viability ([4]; first compound 0.01581 µM): 1.16 | relative viability ([4]; first compound 0.05 µM): 1.02 | relative viability ([4]; first compound 0.1581 µM): 0.767 | relative viability ([4]; first compound 0.5 µM): 0.738
